From PubChem BioAssay (NCI)
“And” between values parts separate entries of the source, which are not always exact repeats. Equal entries are not always repeated.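 Five concentrations, 48 hours, 96-well plates. GI50 is the concentration that inhibits growth by half. TGI: concentration producing complete growth inhibition.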 Where a SMILES comes first, the peptide text is derived from it. The star is where a group is joined. Cbz = O=C(OCc1ccccc1)*

Test system: HOP-92 NSCLC
Assay: DTP human tumour cell line panel, 48 h

Q: `NCCCN(CCCN)CCc1cn(C(=O)c2ccccc2)cn1` was tested. Which TGI did it give?
A: 13.2 µM

Q: With `CC1(C)O[C@H]2OC(CO)C(N=[N+]=[N-])[C@H]2O1` (stereo not given in full) as the compound, how does the TGI read?
A: > 100 µM

Q: How did the TGI turn out when `CCOC(=O)CCC(NC(=O)C(Cc1ccccc1)NC(=O)OCc1ccccc1)C(=O)OCC` (stereo not drawn) (Cbz-Phe-Glu(OEt)-OEt; configuration not given here) was run?
A: 36.3 µM

Q: For `O=C1C(Br)=CC2(C=C1Br)CCNC1=C2C(=O)c2ncccc2C1=O`, which TGI is on record?
A: 4.38 µM

Q: With `CCCCC1Cc2cc(O)ccc2-c2nc3cc(O)ccc3n21` (stereo not given) (tested in a mixture with another compound) as the compound, how does the TGI read?
A: 30.5 µM

Q: Which TGI does the source give for `CC(=O)c1c(N=[N+]=[N-])c2cccc3c2n(c1=O)CCC3` here?
A: 67.7 µM

Q: Which TGI does the source give for `CCCCCCCCCCCC(=O)OC[C@@H](C[As](=O)(O)O)OC(=O)CCCCCCCCCCC` here?
A: 4.44 µM

Q: Which TGI does the source give for `COc1ccc(C2c3cc4c(cc3OC(N3CCOCC3)C2C)OCO4)cc1` (stereo not given) here?
A: 58.2 µM

Q: With `CC(=O)c1ccc2c(c1)C(=O)c1sc(C(C)=O)cc1C2=O` as the compound, how does the TGI read?
A: 50 µM

Q: For `O=[N+]([O-])c1c(F)c(F)c2c(c1F)N(CCCCCl)c1ccccc1S2`, which TGI is on record?
A: 39 µM

Q: How did the TGI turn out when `Cc1ccnc2c1C(=O)C1=C(OC(C)(C)CC1O)C2=O` (stereo not given) was run?
A: 24.6 µM

Q: How did the TGI turn out when `CN1CCc2c(sc3[nH]c(=S)[nH]c(=S)c23)C1` was run?
A: > 100 µM

Q: With `CC(=O)OC(CCC1(C)OC1COc1ccc(CCNC(=O)C=C(C)C)cc1)C(C)(C)OC(C)=O` (stereo not given) as the compound, how does the TGI read?
A: > 100 µM

Q: How did the TGI turn out when `CC(=O)Nc1c(C(=N)C#N)ncn1CCO` was run?
A: > 100 µM

Q: Which TGI does the source give for `CN1CCCOC(c2ccc(Cl)cc2)O1` (stereo not given) here?
A: > 100 µM

Q: Which TGI does the source give for `Cc1c2ccc3ccccc3c2c[n+]2ccccc12` here?
A: 60.8 µM

Q: Which TGI does the source give for `O=C1/C(=C\c2cccc(Oc3ccccc3)c2)S(=O)(=O)C(c2ccccc2)N1c1cccc(Cl)c1` (stereo not given) here?
A: > 100 µM

Q: Which TGI does the source give for `CCOC(=O)CCC1(CCC(=O)OCC)CCCCCCCCC(CCC(=O)OCC)(CCC(=O)OCC)C(=O)C1=O` here?
A: > 100 µM

Q: With `Cc1ccc2c(c1)CC1(Cc3cccc(C)c3C1=O)C2=O` (stereo not given) as the compound, how does the TGI read?
A: > 100 µM

Q: Which TGI does the source give for `O=C(Cn1c2ccc(Br)cc2c2nc3ccccc3nc21)NNC(=S)NC1CCCCC1` here?
A: 27.1 µM

Test system: IGROV1 ovarian
Assay: DTP human tumour cell line panel, 48 h

Q: For `O=c1[nH]c2nc3ccccc3c(=O)n2/c1=C/c1cccs1`, which TGI is on record?
A: > 100 µM

Q: With `O=C1c2c(Br)sc(Br)c2C(=O)C1(O)O` as the compound, how does the TGI read?
A: > 100 µM

Q: With `O=C1CCSCCC(=O)Nc2ccccc2N1` as the compound, how does the TGI read?
A: > 100 µM

Q: `CC(=O)SC(C[N+](=O)[O-])c1ccc2c(c1)OCO2` (stereo not given) was tested. Which TGI did it give?
A: 19.8 µM

Q: With `Cc1ccc(CSC(N)=Nc2ccccc2)cc1C` as the compound, how does the TGI read?
A: 57.5 µM

Q: Which TGI does the source give for `C=C1CCCCCCCCC/C=C/1SCCCSC` here?
A: > 100 µM

Q: `CCOc1cc(NC(C)=O)ccc1C(=O)NNS(=O)(=O)c1ccc(NC(C)=O)cc1` was tested. Which TGI did it give?
A: > 100 µM

Q: How did the TGI turn out when `NCCCN(CCCN)CCc1cn(C(=O)c2ccccc2)cn1` was run?
A: 17.4 µM

Q: For `CC1(C)O[C@H]2OC(CO)C(N=[N+]=[N-])[C@H]2O1` (stereo not given in full), which TGI is on record?
A: > 100 µM

Q: With `CCOC(=O)CCC(NC(=O)C(Cc1ccccc1)NC(=O)OCc1ccccc1)C(=O)OCC` (stereo not drawn) (Cbz-Phe-Glu(OEt)-OEt; configuration not given here) as the compound, how does the TGI read?
A: 32.3 µM

Q: With `O=C1C(Br)=CC2(C=C1Br)CCNC1=C2C(=O)c2ncccc2C1=O` as the compound, how does the TGI read?
A: 2.03 µM

Q: For `CCCCC1Cc2cc(O)ccc2-c2nc3cc(O)ccc3n21` (stereo not given) (tested in a mixture with another compound), which TGI is on record?
A: 28.9 µM

Q: With `CC(=O)c1c(N=[N+]=[N-])c2cccc3c2n(c1=O)CCC3` as the compound, how does the TGI read?
A: 42.8 µM

Q: For `CCCCCCCCCCCC(=O)OC[C@@H](C[As](=O)(O)O)OC(=O)CCCCCCCCCCC`, which TGI is on record?
A: 3.8 µM

Q: How did the TGI turn out when `COc1ccc(C2c3cc4c(cc3OC(N3CCOCC3)C2C)OCO4)cc1` (stereo not given) was run?
A: > 100 µM

Q: Which GI50 does the source give for `CC(=O)c1ccc2c(c1)C(=O)c1sc(C(C)=O)cc1C2=O` here?
A: 0.43 µM

Q: And the TGI?
A: 2.55 µM and 1.59 µM

Q: How did the TGI turn out when `O=[N+]([O-])c1c(F)c(F)c2c(c1F)N(CCCCCl)c1ccccc1S2` was run?
A: 5.36 µM

Q: With `Cc1ccnc2c1C(=O)C1=C(OC(C)(C)CC1O)C2=O` (stereo not given) as the compound, how does the TGI read?
A: 11.3 µM

Q: With `CN1CCc2c(sc3[nH]c(=S)[nH]c(=S)c23)C1` as the compound, how does the TGI read?
A: > 100 µM

Q: For `CC(=O)OC(CCC1(C)OC1COc1ccc(CCNC(=O)C=C(C)C)cc1)C(C)(C)OC(C)=O` (stereo not given), which TGI is on record?
A: > 100 µM

Q: With `CC(=O)Nc1c(C(=N)C#N)ncn1CCO` as the compound, how does the TGI read?
A: > 100 µM

Q: How did the TGI turn out when `CN1CCCOC(c2ccc(Cl)cc2)O1` (stereo not given) was run?
A: > 100 µM

Q: With `Cc1c2ccc3ccccc3c2c[n+]2ccccc12` as the compound, how does the TGI read?
A: > 100 µM

Q: With `O=C1/C(=C\c2cccc(Oc3ccccc3)c2)S(=O)(=O)C(c2ccccc2)N1c1cccc(Cl)c1` (stereo not given) as the compound, how does the TGI read?
A: > 100 µM

Q: `CCOC(=O)CCC1(CCC(=O)OCC)CCCCCCCCC(CCC(=O)OCC)(CCC(=O)OCC)C(=O)C1=O` was tested. Which TGI did it give?
A: > 100 µM

Q: Which TGI does the source give for `Cc1ccc2c(c1)CC1(Cc3cccc(C)c3C1=O)C2=O` (stereo not given) here?
A: > 100 µM

Q: For `O=C(Cn1c2ccc(Br)cc2c2nc3ccccc3nc21)NNC(=S)NC1CCCCC1`, which TGI is on record?
A: 23.6 µM

Test system: LOX IMVI melanoma
Assay: DTP human tumour cell line panel, 48 h

Q: Which TGI does the source give for `O=c1[nH]c2nc3ccccc3c(=O)n2/c1=C/c1cccs1` here?
A: > 100 µM

Q: `O=C1c2c(Br)sc(Br)c2C(=O)C1(O)O` was tested. Which TGI did it give?
A: > 100 µM

Q: With `O=C1CCSCCC(=O)Nc2ccccc2N1` as the compound, how does the TGI read?
A: > 100 µM

Q: For `CC(=O)SC(C[N+](=O)[O-])c1ccc2c(c1)OCO2` (stereo not given), which TGI is on record?
A: 4.35 µM

Q: With `Cc1ccc(CSC(N)=Nc2ccccc2)cc1C` as the compound, how does the TGI read?
A: 36.2 µM

Q: Which TGI does the source give for `C=C1CCCCCCCCC/C=C/1SCCCSC` here?
A: > 100 µM

Q: For `CCOc1cc(NC(C)=O)ccc1C(=O)NNS(=O)(=O)c1ccc(NC(C)=O)cc1`, which TGI is on record?
A: > 100 µM

Q: How did the TGI turn out when `NCCCN(CCCN)CCc1cn(C(=O)c2ccccc2)cn1` was run?
A: 43.5 µM

Q: With `CC1(C)O[C@H]2OC(CO)C(N=[N+]=[N-])[C@H]2O1` (stereo not given in full) as the compound, how does the TGI read?
A: > 100 µM

Q: How did the TGI turn out when `CCOC(=O)CCC(NC(=O)C(Cc1ccccc1)NC(=O)OCc1ccccc1)C(=O)OCC` (stereo not drawn) (Cbz-Phe-Glu(OEt)-OEt; configuration not given here) was run?
A: 27.9 µM

Q: `O=C1C(Br)=CC2(C=C1Br)CCNC1=C2C(=O)c2ncccc2C1=O` was tested. Which TGI did it give?
A: 1.53 µM

Q: `CCCCC1Cc2cc(O)ccc2-c2nc3cc(O)ccc3n21` (stereo not given) (tested in a mixture with another compound) was tested. Which TGI did it give?
A: 30.9 µM

Q: With `CC(=O)c1c(N=[N+]=[N-])c2cccc3c2n(c1=O)CCC3` as the compound, how does the TGI read?
A: 40.8 µM

Q: With `CCCCCCCCCCCC(=O)OC[C@@H](C[As](=O)(O)O)OC(=O)CCCCCCCCCCC` as the compound, how does the TGI read?
A: 18.1 µM

Q: With `COc1ccc(C2c3cc4c(cc3OC(N3CCOCC3)C2C)OCO4)cc1` (stereo not given) as the compound, how does the TGI read?
A: > 79.5 µM

Q: With `CC(=O)c1ccc2c(c1)C(=O)c1sc(C(C)=O)cc1C2=O` as the compound, how does the TGI read?
A: 2.12 µM

Q: For `O=[N+]([O-])c1c(F)c(F)c2c(c1F)N(CCCCCl)c1ccccc1S2`, which TGI is on record?
A: 3.06 µM

Q: For `Cc1ccnc2c1C(=O)C1=C(OC(C)(C)CC1O)C2=O` (stereo not given), which TGI is on record?
A: 8.91 µM

Q: For `CN1CCc2c(sc3[nH]c(=S)[nH]c(=S)c23)C1`, which TGI is on record?
A: > 100 µM

Q: Which TGI does the source give for `CC(=O)OC(CCC1(C)OC1COc1ccc(CCNC(=O)C=C(C)C)cc1)C(C)(C)OC(C)=O` (stereo not given) here?
A: > 100 µM

Q: For `CC(=O)Nc1c(C(=N)C#N)ncn1CCO`, which TGI is on record?
A: > 100 µM

Q: Which TGI does the source give for `CN1CCCOC(c2ccc(Cl)cc2)O1` (stereo not given) here?
A: > 100 µM

Q: For `Cc1c2ccc3ccccc3c2c[n+]2ccccc12`, which TGI is on record?
A: > 78.4 µM

Q: Which TGI does the source give for `O=C1/C(=C\c2cccc(Oc3ccccc3)c2)S(=O)(=O)C(c2ccccc2)N1c1cccc(Cl)c1` (stereo not given) here?
A: 44.8 µM

Q: Which TGI does the source give for `CCOC(=O)CCC1(CCC(=O)OCC)CCCCCCCCC(CCC(=O)OCC)(CCC(=O)OCC)C(=O)C1=O` here?
A: > 100 µM

Q: For `Cc1ccc2c(c1)CC1(Cc3cccc(C)c3C1=O)C2=O` (stereo not given), which TGI is on record?
A: > 10 µM

Q: `O=C(Cn1c2ccc(Br)cc2c2nc3ccccc3nc21)NNC(=S)NC1CCCCC1` was tested. Which TGI did it give?
A: 24.9 µM

Test system: M14 melanoma
Assay: DTP human tumour cell line panel, 48 h

Q: Which TGI does the source give for `O=c1[nH]c2nc3ccccc3c(=O)n2/c1=C/c1cccs1` here?
A: > 100 µM

Q: Which TGI does the source give for `O=C1c2c(Br)sc(Br)c2C(=O)C1(O)O` here?
A: 33.6 µM

Q: How did the TGI turn out when `O=C1CCSCCC(=O)Nc2ccccc2N1` was run?
A: > 100 µM

Q: `CC(=O)SC(C[N+](=O)[O-])c1ccc2c(c1)OCO2` (stereo not given) was tested. Which TGI did it give?
A: 15.6 µM

Q: For `Cc1ccc(CSC(N)=Nc2ccccc2)cc1C`, which TGI is on record?
A: 41.2 µM

Q: Which TGI does the source give for `C=C1CCCCCCCCC/C=C/1SCCCSC` here?
A: > 100 µM

Q: With `CCOc1cc(NC(C)=O)ccc1C(=O)NNS(=O)(=O)c1ccc(NC(C)=O)cc1` as the compound, how does the TGI read?
A: > 100 µM

Q: `NCCCN(CCCN)CCc1cn(C(=O)c2ccccc2)cn1` was tested. Which TGI did it give?
A: 18.1 µM

Q: `CC1(C)O[C@H]2OC(CO)C(N=[N+]=[N-])[C@H]2O1` (stereo not given in full) was tested. Which TGI did it give?
A: > 100 µM

Q: `CCOC(=O)CCC(NC(=O)C(Cc1ccccc1)NC(=O)OCc1ccccc1)C(=O)OCC` (stereo not drawn) (Cbz-Phe-Glu(OEt)-OEt; configuration not given here) was tested. Which TGI did it give?
A: 29.3 µM

Q: How did the TGI turn out when `O=C1C(Br)=CC2(C=C1Br)CCNC1=C2C(=O)c2ncccc2C1=O` was run?
A: 3.01 µM

Q: For `CCCCC1Cc2cc(O)ccc2-c2nc3cc(O)ccc3n21` (stereo not given) (tested in a mixture with another compound), which TGI is on record?
A: 28.6 µM

Q: Which TGI does the source give for `CC(=O)c1c(N=[N+]=[N-])c2cccc3c2n(c1=O)CCC3` here?
A: 36.3 µM

Q: `CCCCCCCCCCCC(=O)OC[C@@H](C[As](=O)(O)O)OC(=O)CCCCCCCCCCC` was tested. Which TGI did it give?
A: 8.47 µM

Q: How did the TGI turn out when `COc1ccc(C2c3cc4c(cc3OC(N3CCOCC3)C2C)OCO4)cc1` (stereo not given) was run?
A: > 89 µM
